The results in this text go back to PMC6804824, “Volatile composition and classification of Lilium flower aroma types and identification, polymorphisms, and alternative splicing of their monoterpene synthase genes” (Horticulture Research, 2019).

Molecules are shown by their SMILES. Residue numbers refer to the chain shown, from its start.

Experiment in all cases: GC-MS product analysis (SPME)
Holding throughout (type): biochemical
Common to all, as to settings: 30 uM GPP, 10 mM MgCl2, pH 7.2, 30 C, 3 h; products (E)-beta-ocimene, alpha-pinene, limonene; results call protein purified, methods use sonicated cells

One assay has as its target T1, LsoTPS-3 (Lilium hybrid cultivar, UniProt A0A6M2RCV8).
T1 construct: full length, 548 aa (ORF 1647 bp), plastid transit peptide intact; pTYB12 fusion vector; E. coli BL21(DE3); about 62 kDa
T1 sequence (A0A6M2RCV8 1-548): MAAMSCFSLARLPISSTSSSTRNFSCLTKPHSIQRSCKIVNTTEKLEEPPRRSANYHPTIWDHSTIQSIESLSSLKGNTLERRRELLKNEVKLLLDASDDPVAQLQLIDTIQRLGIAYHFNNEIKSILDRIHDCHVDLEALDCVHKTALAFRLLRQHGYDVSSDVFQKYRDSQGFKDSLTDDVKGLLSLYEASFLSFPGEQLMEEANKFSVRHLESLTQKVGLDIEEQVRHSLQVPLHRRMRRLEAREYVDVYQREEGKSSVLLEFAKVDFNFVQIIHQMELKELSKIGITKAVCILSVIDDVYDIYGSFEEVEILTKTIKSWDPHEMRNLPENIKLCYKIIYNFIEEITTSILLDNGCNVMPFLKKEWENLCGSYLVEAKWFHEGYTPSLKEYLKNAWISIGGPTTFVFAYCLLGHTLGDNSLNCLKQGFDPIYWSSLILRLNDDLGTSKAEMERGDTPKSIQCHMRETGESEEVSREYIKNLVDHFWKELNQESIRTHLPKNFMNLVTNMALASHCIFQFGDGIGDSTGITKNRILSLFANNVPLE

The next assay has as its target T2, LsoTPS-2 (Lilium hybrid cultivar, UniProt A0A2H4R3S6).
T2 construct: gene TPS; full length, 590 aa (ORF 1773 bp), plastid transit peptide intact; pTYB12 fusion vector; E. coli BL21(DE3); about 68 kDa
T2 sequence (A0A2H4R3S6 1-590): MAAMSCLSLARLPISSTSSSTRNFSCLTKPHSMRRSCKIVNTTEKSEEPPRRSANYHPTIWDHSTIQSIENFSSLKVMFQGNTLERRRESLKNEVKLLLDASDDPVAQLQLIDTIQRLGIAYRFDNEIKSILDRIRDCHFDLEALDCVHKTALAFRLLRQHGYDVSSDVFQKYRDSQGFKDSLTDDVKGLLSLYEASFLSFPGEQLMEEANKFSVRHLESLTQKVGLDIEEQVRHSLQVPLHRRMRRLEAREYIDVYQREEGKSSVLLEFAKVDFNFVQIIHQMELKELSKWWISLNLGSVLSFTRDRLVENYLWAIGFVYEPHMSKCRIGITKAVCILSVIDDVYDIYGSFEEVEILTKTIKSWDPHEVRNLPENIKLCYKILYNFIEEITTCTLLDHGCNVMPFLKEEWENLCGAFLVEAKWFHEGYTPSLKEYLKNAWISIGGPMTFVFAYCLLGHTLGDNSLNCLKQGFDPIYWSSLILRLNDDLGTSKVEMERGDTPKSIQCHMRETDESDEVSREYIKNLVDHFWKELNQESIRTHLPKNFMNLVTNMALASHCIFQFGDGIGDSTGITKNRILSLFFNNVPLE

The next assay deals with T3, LrlTPS-3 (Lilium hybrid cultivar, UniProt A0A6M2RDN4).
T3 construct: full length, 548 aa (ORF 1647 bp), plastid transit peptide intact; pTYB12 fusion vector; E. coli BL21(DE3); about 62 kDa
T3 sequence (A0A6M2RDN4 1-548): T1 sequence (A0A6M2RCV8 1-548) with L80P, H231R

For the next assay, the target named is T4, LsoTPS-1 / LrlTPS-1 (Lilium hybrid cultivar, UniProt A0A6M2RDI7).
T4 construct: full length, 586 aa (ORF 1761 bp), plastid transit peptide intact; pTYB12 fusion vector; E. coli BL21(DE3); about 67 kDa
T4 sequence (A0A6M2RDI7 1-586): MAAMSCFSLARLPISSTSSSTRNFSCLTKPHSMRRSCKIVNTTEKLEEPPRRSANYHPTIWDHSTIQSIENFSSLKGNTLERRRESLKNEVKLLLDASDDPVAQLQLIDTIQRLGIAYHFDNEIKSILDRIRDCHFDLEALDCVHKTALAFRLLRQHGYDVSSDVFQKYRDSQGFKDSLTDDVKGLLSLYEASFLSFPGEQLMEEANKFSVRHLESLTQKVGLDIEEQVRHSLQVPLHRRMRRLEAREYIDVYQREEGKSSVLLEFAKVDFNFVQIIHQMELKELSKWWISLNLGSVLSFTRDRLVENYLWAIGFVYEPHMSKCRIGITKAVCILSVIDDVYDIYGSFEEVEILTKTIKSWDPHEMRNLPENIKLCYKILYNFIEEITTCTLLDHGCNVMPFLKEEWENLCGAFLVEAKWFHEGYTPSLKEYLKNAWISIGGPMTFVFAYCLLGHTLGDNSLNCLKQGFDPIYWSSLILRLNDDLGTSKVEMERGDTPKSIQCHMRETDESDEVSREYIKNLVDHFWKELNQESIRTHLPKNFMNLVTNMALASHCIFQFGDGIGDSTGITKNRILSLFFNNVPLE

Turning to `CC(C)=CCC/C(C)=C/COP(=O)(O)OP(=O)(O)O` [GPP], the “GC-MS product analysis (SPME)” value at LsoTPS-3 was “all five proteins were able to convert GPP into (E)-β-ocimene, α-pinene, and limonene”; on LsoTPS-2, “all five proteins were able to convert GPP into (E)-β-ocimene, α-pinene, and limonene”; at LrlTPS-3, “all five proteins were able to convert GPP into (E)-β-ocimene, α-pinene, and limonene”; on LsoTPS-1 / LrlTPS-1 it was “all five proteins were able to convert GPP into (E)-β-ocimene, α-pinene, and limonene”.
